# Experimental data published in publication PMC7381729, “A new class of PentixaFor- and PentixaTher-based theranostic agents with enhanced CXCR4-targeting efficiency” (Theranostics, 2020).
# Like-named read-outs stand apart in the source and are kept apart here. Where a SMILES comes first, the peptide text is derived from it. Side-chain parts run from the residue outwards. [ ]: non-standard residue; d: D form. The star is where a group is joined. DOTA = O=C(O)CN1CCN(CC(=O)O)CCN(CC(=O)*)CCN(CC(=O)O)CC1; 2Nal = N[C@@H](Cc1ccc2ccccc2c1)C(=O)O; dNMeOrn = CN[C@H](CCCN)C(=O)O; 4Abz = Nc1ccc(C(=O)O)cc1
# Assay: Biodistribution in Daudi xenograft bearing mice
# Format: in vivo, mouse
# Details: female, CB-17 SCID, mouse, iv, total radioactivity; for tissue uptake at 6 h: 6h p.i.; for tissue uptake at 6 h / tissue uptake at 48 h: i.v., n=4-5; for tissue uptake at 6 h / tissue uptake at 48 h / tissue to tissue ratio at 48 h: means ± SD; for tissue uptake at 48 h / tissue to tissue ratio at 48 h: 48h p.i.; for tissue uptake at 1 h: 1h p.i., coinjection of 50 µg AMD3100/animal, n=1; for tissue to tissue ratio at 48 h: n=4-5 animals
# Outline: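 Female CB-17 SCID mice with Daudi xenografts (n=4-5) received 5-10 MBq (0.08-0.11 nmol) ^68Ga- or ^177Lu-labelled ligand i.v.; blocking by coinjected 50 µg AMD3100. Organs counted by γ-counter at 1, 6 and 48 h p.i.; %ID/g (mean ± SD).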
# [1] = adrenals, read-out: Biodistribution adrenals
# [2] = blood, read-out: Biodistribution blood
# [3] = colon, read-out: Biodistribution colon
# [4] = femur, read-out: Biodistribution femur
# [5] = heart, read-out: Biodistribution heart
# [6] = kidney, read-out: Biodistribution kidney
# [7] = liver, read-out: Biodistribution liver
# [8] = lung, read-out: Biodistribution lung
# [9] = muscle, read-out: Biodistribution muscle
# [10] = pancreas, read-out: Biodistribution pancreas
# [11] = small intestine, read-out: Biodistribution small intestine
# [12] = spleen, read-out: Biodistribution spleen
# [13] = stomach, read-out: Biodistribution stomach
# [14] = tumor (Daudi xenograft), read-out: Biodistribution tumor (Daudi xenograft)
smiles,measurement,setting,value
"C[C@@H](NC(=O)[C@@H](CCCNC(=N)N)NC(=O)CN1CCN(CC(=O)O)CCN(CC(=O)O)CCN(CC(=O)O)CC1)C(=O)Nc1ccc(C(=O)NCCC[C@@H]2C(=O)N[C@@H](CCCNC(=N)N)C(=O)N[C@@H](Cc3ccc4ccccc4c3)C(=O)NCC(=O)N[C@H](Cc3ccc(O)cc3)C(=O)N2C)cc1 [[^177Lu]DOTA-r-a-ABA-CPCR4, metal not drawn] (cyclo([2Nal]G[dY][dNMeOrn]([4Abz-dA-dR-DOTA])R))",tissue uptake at 6 h,[1],0.51 ± 0.12 %ID/g
same,tissue uptake at 48 h,[1],0.33 ± 0.08 %ID/g
same,tissue uptake at 1 h,"adrenals, with AMD3100, 50 µg per animal, coinjected (CXCR4 competition), read-out: Biodistribution adrenals, + AMD3100",1.22 %ID/g
same,tissue uptake at 6 h,[2],0.05 ± 0.01 %ID/g
same,tissue uptake at 48 h,[2],0.01 %ID/g
same,tissue uptake at 1 h,"blood, with AMD3100, 50 µg per animal, coinjected (CXCR4 competition), read-out: Biodistribution blood, + AMD3100",1.9 %ID/g
same,tissue uptake at 6 h,[3],0.65 ± 0.3 %ID/g
same,tissue uptake at 48 h,[3],0.44 ± 0.22 %ID/g
same,tissue uptake at 1 h,"colon, with AMD3100, 50 µg per animal, coinjected (CXCR4 competition), read-out: Biodistribution colon, + AMD3100",0.74 %ID/g
same,tissue uptake at 6 h,[4],0.3 ± 0.05 %ID/g
same,tissue uptake at 48 h,[4],0.29 ± 0.05 %ID/g
same,tissue uptake at 1 h,"femur, with AMD3100, 50 µg per animal, coinjected (CXCR4 competition), read-out: Biodistribution femur, + AMD3100",0.74 %ID/g
same,tissue uptake at 1 h,"heart, read-out: Biodistribution heart, + AMD3100",1.07 %ID/g
same,tissue uptake at 6 h,[5],0.13 ± 0.02 %ID/g
same,tissue uptake at 48 h,[5],0.08 ± 0.01 %ID/g
same,tissue uptake at 6 h,[6],7.1 ± 2.06 %ID/g
same,tissue uptake at 48 h,[6],3.05 ± 0.15 %ID/g
same,tissue uptake at 1 h,"kidney, with AMD3100, 50 µg per animal, coinjected (CXCR4 competition), read-out: Biodistribution kidney, + AMD3100",10.3 %ID/g
same,tissue uptake at 1 h,"liver, read-out: Biodistribution liver, + AMD3100",5.46 %ID/g
same,tissue uptake at 6 h,[7],11.3 ± 2.83 %ID/g
same,tissue uptake at 48 h,[7],8.99 ± 1.62 %ID/g
same,tissue uptake at 1 h,"lung, read-out: Biodistribution lung, + AMD3100",3.34 %ID/g
same,tissue uptake at 6 h,[8],0.27 ± 0.06 %ID/g
same,tissue uptake at 48 h,[8],0.19 ± 0.08 %ID/g
same,tissue uptake at 6 h,[9],0.04 ± 0.01 %ID/g
same,tissue uptake at 48 h,[9],0.02 %ID/g
same,tissue uptake at 1 h,"muscle, with AMD3100, 50 µg per animal, coinjected (CXCR4 competition), read-out: Biodistribution muscle, + AMD3100",0.38 %ID/g
same,tissue uptake at 6 h,[10],0.08 ± 0.02 %ID/g
same,tissue uptake at 48 h,[10],0.07 ± 0.01 %ID/g
same,tissue uptake at 1 h,"pancreas, with AMD3100, 50 µg per animal, coinjected (CXCR4 competition), read-out: Biodistribution pancreas, + AMD3100",0.61 %ID/g
same,tissue uptake at 6 h,[11],0.3 ± 0.06 %ID/g
same,tissue uptake at 48 h,[11],0.16 ± 0.11 %ID/g
same,tissue uptake at 1 h,"small intestine, with AMD3100, 50 µg per animal, coinjected (CXCR4 competition), read-out: Biodistribution small intestine, + AMD3100",1.36 %ID/g
same,tissue uptake at 6 h,[12],1.41 ± 0.24 %ID/g
same,tissue uptake at 48 h,[12],1.06 ± 0.33 %ID/g
same,tissue uptake at 1 h,"spleen, with AMD3100, 50 µg per animal, coinjected (CXCR4 competition), read-out: Biodistribution spleen, + AMD3100",1.11 %ID/g
same,tissue uptake at 6 h,[13],0.25 ± 0.07 %ID/g
same,tissue uptake at 48 h,[13],0.19 ± 0.13 %ID/g
same,tissue uptake at 1 h,"stomach, with AMD3100, 50 µg per animal, coinjected (CXCR4 competition), read-out: Biodistribution stomach, + AMD3100",2.46 %ID/g
same,tissue uptake at 6 h,[14],13.6 ± 3.33 %ID/g
same,tissue uptake at 48 h,[14],8.81 ± 0.99 %ID/g
same,tissue uptake at 1 h,"tumor (Daudi xenograft), with AMD3100, 50 µg per animal, coinjected (CXCR4 competition), read-out: Biodistribution tumor, + AMD3100",3.04 %ID/g
same,tissue to tissue ratio at 48 h,"tumor / blood, read-out: Tumor/organ ratio t/blood",949 ± 146
same,tissue to tissue ratio at 48 h,"tumor / colon, read-out: Tumor/organ ratio t/colon",20 ± 10
same,tissue to tissue ratio at 48 h,"tumor / heart, read-out: Tumor/organ ratio t/heart",111 ± 20
same,tissue to tissue ratio at 48 h,"tumor / kidney, read-out: Tumor/organ ratio t/kidney",2.9 ± 0.4
same,tissue to tissue ratio at 48 h,"tumor / liver, read-out: Tumor/organ ratio t/liver",1 ± 0.2
same,tissue to tissue ratio at 48 h,"tumor / lung, read-out: Tumor/organ ratio t/lung",47 ± 22
same,tissue to tissue ratio at 48 h,"tumor / muscle, read-out: Tumor/organ ratio t/muscle",413 ± 100
same,tissue to tissue ratio at 48 h,"tumor / small intestine, read-out: Tumor/organ ratio t/small intestine",55 ± 36
same,tissue to tissue ratio at 48 h,"tumor / spleen, read-out: Tumor/organ ratio t/spleen",8.3 ± 2.8
same,tissue to tissue ratio at 48 h,"tumor / stomach, read-out: Tumor/organ ratio t/stomach",46 ± 32
